Test results reported in patent publication US20220152523A1, “Cannabinoid Separation by Countercurrent Chromatography” (priority 2019, published 2022).
Like-named read-outs stand apart in the source and are kept apart here.

[1] = solvent system SS 1: sec-BuOH-1% TFA/water (1:1)
[2] = solvent system SS 3: Hexane-acetone-acetonitrile (5:2:3)
[3] = solvent system SS 4: EtOAc-n-BuOH-water (2:1:3)
[4] = solvent system SS 5: EtOAc-n-BuOH-1% aq. TFA (2:1:3)
[5] = solvent system SS 6: Hexane-EtOAc-MeOH-water (6:1:6:1)
[6] = solvent system Sec-BuOH-water (1:1)

CCCCCc1cc(O)c2c(c1)OC(C)(C)[C@@H]1CCC(C)=C[C@@H]21 [THC, Δ9-Tetrahydrocannabinol]
K, partition coefficient (ratio of upper phase to lower phase) [1]: 6.14
K, partition coefficient (ratio of upper phase to lower phase) [2]: 0.56
K, partition coefficient (ratio of upper phase to lower phase) [3]: 6.55
K, partition coefficient (ratio of upper phase to lower phase) [4]: 10.9
K, partition coefficient (ratio of upper phase to lower phase) [5]: 2.4
K, partition coefficient (ratio of upper phase to lower phase) [6]: 9.4
K, partition coefficient (ratio of upper phase to lower phase) (solvent system n-BuOH-water (1:1)): 33

C=C(C)[C@@H]1CCC(C)=C[C@H]1c1c(O)cc(CCCCC)cc1O [CBD, cannabidiol]
K, partition coefficient (ratio of upper phase to lower phase) [1]: 2.7
K, partition coefficient (ratio of upper phase to lower phase) (solvent system SS 2: n-BuOH-1% aq. TFA (1:1)): 8.6
K, partition coefficient (ratio of upper phase to lower phase) [2]: 0.99
K, partition coefficient (ratio of upper phase to lower phase) [3]: 4.2
K, partition coefficient (ratio of upper phase to lower phase) [4]: 16.5
K, partition coefficient (ratio of upper phase to lower phase) [5]: 0.5
K, partition coefficient (ratio of upper phase to lower phase) [6]: 5.5
